# Where two headings read alike, the source gives them in different places.
# Key:
# NCI-H1975 = test: CCK-8 tumor cell proliferation, NCI-H1975; assay type: cell-based, Human; conditions: for IC50 for inhibiting the proliferation of tumor cells, H1975: Table 11, designed based on EGFR inhibitors; for IC50: Homo sapiens, Table 15, ALK inhibitor based, NCI-H1975, read-out: IC50 inhibiting proliferation of tumor cells, NCI-H1975
# Method: (§1) The tumor cells used herein were cultured in a cell culture medium listed in table 4 at 37° C. in an incubator with 5% CO2. Prior to experimentation, all cells used were correctly identified by STR profiling, and tested negative for mycoplasma through routine screenings.
# (§2) IC50 values of the compounds of the present disclosure (including the compounds in Tables 1 and 3, and compounds of examples) were measured using the Meilun Cell Counting Kit-8 kit from Dalian Meilun Biotech Co., Ltd. Assay details are as follows: tumor cells were seeded in a 96-well plate at a density listed in Table 5. After 24 h, 100 μL of the inoculated cells were treated with 0.5 μL of the compounds of the present disclosure (including the compounds in Tables 1 and 3, and compounds of examples) at 10 different successively decreasing concentrations (starting at the highest concentration of 10 μM; 5-fold serial dilutions). After the cells were treated with the compounds of the present disclosure for a period of time, the cell viability detection reagent was added to the culture medium for cell viability assessment according to the instructions provided with the CCK-8 kit. […] The growth inhibition of the compounds of the present disclosure on cells was plotted by Prism Graphpad software, and the IC50 values of the compounds of the present disclosure were calculated therefrom.
# PC-9 = test: CCK-8 tumor cell proliferation, PC-9; assay type: cell-based, Human; conditions: Homo sapiens, PC-9, read-out: IC50 inhibiting proliferation of tumor cells, PC-9
# MDA-MB-231 = test: CCK-8 tumor cell proliferation, MDA-MB-231; assay type: cell-based, Human; conditions: Homo sapiens, MDA-MB-231, read-out: IC50 inhibiting proliferation of tumor cells, MDA-MB-231
# In short: (§3)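 Ten-point titrations (10 μM highest, 5-fold steps) were applied to cells 24 h after seeding. After treatment at 37 °C, 5% CO2, cell viability was read with CCK-8 and IC50 values were computed from the resulting inhibition curves.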
# SW620 = test: CCK-8 tumor cell proliferation, SW620; assay type: cell-based, Human; conditions: Homo sapiens, SW-620; Table 18, FAK inhibitor based; SW620; read-out: IC50 inhibiting proliferation of tumor cells, SW620
# In short: as §3
# Vcap = test: CCK-8 tumor cell proliferation, Vcap; assay type: cell-based, Human; conditions: for IC50: Homo sapiens, VCaP, Table 18, FAK inhibitor based, Vcap, read-out: IC50 inhibiting proliferation of tumor cells, Vcap
# Method: as §1, §2
# MM.1S = test: CCK-8 tumor cell proliferation, MM.1S; assay type: cell-based; conditions: Homo sapiens, MM1.S; Table 18, FAK inhibitor based; MM.1S; read-out: IC50 inhibiting proliferation of tumor cells, MM.1S
# Method: as §1, §2
# CCRF-CEM = test: CCK-8 tumor cell proliferation, CCRF-CEM; assay type: cell-based, Human; design: IC50 for inhibiting the proliferation of tumor cells, CCRF-CEM: scale not given here; conditions: for IC50: Homo sapiens, Table 18, FAK inhibitor based, CCRF-CEM, read-out: IC50 inhibiting proliferation of tumor cells, CCRF-CEM
# In short: as §3
# Mino = test: CCK-8 tumor cell proliferation, Mino; assay type: cell-based, Human; conditions: Homo sapiens; Table 18, FAK inhibitor based; Mino; read-out: IC50 inhibiting proliferation of tumor cells, Mino
# In short: as §3
# CAL-62 = test: CCK-8 tumor cell proliferation, CAL-62; assay type: cell-based, Human; design: IC50 for inhibiting the proliferation of tumor cells, CAL-62: scale not given here; conditions: Table 11, designed based on EGFR inhibitors; 72 h
# In short: as §3
# SR = test: CCK-8 tumor cell proliferation, SR; assay type: cell-based, Human; conditions: Homo sapiens; Table 15, ALK inhibitor based; SR; read-out: IC50 inhibiting proliferation of tumor cells, SR
# In short: as §3
# [1] = Table 7, designed based on BTK inhibitors, 96 h
compound,measurement,setting,value
"COc1cc(N2CCC(N(C)Cc3cc4c(cc3F)C(=O)N(C3CCC(=O)NC3=O)C4)CC2)c(C)cc1Nc1ncc(Br)c(Nc2ccc3nccnc3c2P(C)(C)=O)n1 (stereo not drawn) [GT-03926, 3-(5-(((1-(4-((5-bromo-4-((5-(dimethylphosphoryl)quinoxalin-6-yl)amino)pyrimidin-2-yl)amino)-5-methoxy-2-methylphenyl)piperidin-4-yl)(methyl)amino)methyl)-6-fluoro-1-oxoisoindolin-2-yl)piperidine-2,6-dione]","IC50 for inhibiting the proliferation of tumor cells, H1975",NCI-H1975; 96 h,A+
"CN(Cc1ccc2c(c1F)CN(C1CCC(=O)NC1=O)C2=O)C1CCN(c2ccc(Nc3ncc4nc(Nc5ccccc5)n(C5CCCC5)c4n3)cc2)CC1 (stereo not drawn) [GT-03858, 3-(5-(((1-(4-((9-cyclopentyl-8-(phenylamino)-9H-purin-2-yl)amino)phenyl)piperidin-4-yl)(methyl)amino)methyl)-4-fluoro-1-oxoisoindolin-2-yl)piperidine-2,6-dione]","IC50 for inhibiting the proliferation of tumor cells, H1975",NCI-H1975; 96 h,A+
"CNC(=O)c1ccccc1Nc1cc(Nc2ccc(N3CCN(Cc4cc5c(cc4F)C(=O)N(C4CCC(=O)NC4=O)C5)CC3)cc2OC)ncc1C(F)(F)F (stereo not drawn) [GT-03716, 2-((2-((4-(4-((2-(2,6-dioxopiperidin-3-yl)-6-fluoro-1-oxoisoindolin-5-yl)methyl)piperazin-1-yl)-2-methoxyphenyl)amino)-5-(trifluoromethyl)pyridin-4-yl)amino)-N-methylbenzamide]",IC50,"PC-9; Table 18, FAK inhibitor based",1000 to 5000 nM
same,IC50,"MDA-MB-231; Table 18, FAK inhibitor based",< 50 nM
same,IC50,SW620,< 50 nM
same,IC50,Vcap,< 50 nM
same,IC50,MM.1S,< 50 nM
same,IC50,CCRF-CEM,< 50 nM
same,IC50,Mino,< 50 nM
"COc1cc(N2CCC(N(C)Cc3cc(F)c4c(c3)CN(C3CCC(=O)NC3=O)C4=O)CC2)c(C)cc1Nc1ncc(Br)c(Nc2ccc3nccnc3c2P(C)(C)=O)n1 (stereo not drawn) [GT-03927, 3-(5-(((1-(4-((5-bromo-4-((5-(dimethylphosphoryl)quinoxalin-6-yl)amino)pyrimidin-2-yl)amino)-5-methoxy-2-methylphenyl)piperidin-4-yl)(methyl)amino)methyl)-7-fluoro-1-oxoisoindolin-2-yl)piperidine-2,6-dione]","IC50 for inhibiting the proliferation of tumor cells, CAL-62",CAL-62,A+
same,"IC50 for inhibiting the proliferation of tumor cells, H1975",NCI-H1975; 96 h,A+
"Nc1ncnc2c1c(-c1ccc(Oc3ccccc3)cc1)nn2C1CCN(Cc2cc(F)c3c(c2)CN(C2CCC(=O)NC2=O)C3=O)CC1 (stereo not drawn) [GT-03473, 3-(5-((4-(4-amino-3-(4-phenoxyphenyl)-1H-pyrazolo[3,4-d]pyrimidin-1-yl)piperidin-1-yl)methyl)-7-fluoro-1-oxoisoindolin-2-yl)piperidine-2,6-dione]","IC50 for inhibiting the proliferation of tumor cells, Vcap",Vcap; [1],A+
same,"IC50 for inhibiting the proliferation of tumor cells, NCI-H1975",NCI-H1975; [1],A+
same,"IC50 for inhibiting the proliferation of tumor cells, CCRF-CEM",CCRF-CEM; [1],A+
"COc1cc(N2CCC(N(C)Cc3ccc4c(c3F)CN(C3CCC(=O)NC3=O)C4=O)CC2)c(C)cc1Nc1ncc(Br)c(Nc2ccc3nccnc3c2P(C)(C)=O)n1 (stereo not drawn) [GT-03925, 3-(5-(((1-(4-((5-bromo-4-((5-(dimethylphosphoryl)quinoxalin-6-yl)amino)pyrimidin-2-yl)amino)-5-methoxy-2-methylphenyl)piperidin-4-yl)(methyl)amino)methyl)-4-fluoro-1-oxoisoindolin-2-yl)piperidine-2,6-dione]","IC50 for inhibiting the proliferation of tumor cells, CAL-62",CAL-62,A+
same,"IC50 for inhibiting the proliferation of tumor cells, H1975",NCI-H1975; 96 h,A+
"Cc1cc(Nc2ncc(Cl)c(Nc3ccccc3S(=O)(=O)C(C)C)n2)c(OC(C)C)cc1N1CCC(N(C)Cc2ccc3c(c2)CN(C2CCC(=O)NC2=O)C3=O)CC1 (stereo not drawn) [GT-03530, 3-(5-(((1-(4-((5-chloro-4-((2-(isopropylsulfonyl)phenyl)amino)pyrimidin-2-yl)amino)-5-isopropoxy-2-methylphenyl)piperidin-4-yl)(methyl)amino)methyl)-1-oxoisoindolin-2-yl)piperidine-2,6-dione]",IC50,"PC-9; Table 15, ALK inhibitor based",500 to 1000 nM
same,IC50,"MDA-MB-231; Table 15, ALK inhibitor based",500 to 1000 nM
same,IC50,SR,< 50 nM
same,IC50,NCI-H1975,1000 to 5000 nM
"CN(Cc1ccc2c(c1)CN(C1CCC(=O)NC1=O)C2=O)C1CCN(c2ccc(Nc3ncc(C(F)(F)F)c(NCc4nccnc4N(C)S(C)(=O)=O)n3)cc2)CC1 (stereo not drawn) [GT-03705, N-(3-(((2-((4-(4-(((2-(2,6-dioxopiperidin-3-yl)-1-oxoisoindolin-5-yl)methyl)(methyl)amino)piperidin-1-yl)phenyl)amino)-5-(trifluoromethyl)pyrimidin-4-yl)amino)methyl)pyrazin-2-yl)-N-methylmethanesulfonamide]",IC50,"PC-9; Table 18, FAK inhibitor based",1000 to 5000 nM
same,IC50,"MDA-MB-231; Table 18, FAK inhibitor based",< 50 nM
same,IC50,SW620,100 to 500 nM
same,IC50,Vcap,100 to 500 nM
same,IC50,CCRF-CEM,50 to 100 nM
same,IC50,Mino,< 50 nM
"O=C1CCC(N2Cc3cc(CN4CCN(c5ccc(-c6ccc7c(c6)C(=O)N(C(C(=O)Nc6nccs6)c6cc(F)ccc6O)C7)cc5)CC4)ccc3C2=O)C(=O)N1 (stereo not drawn) [GT-03503, 2-(6-(4-(4-((2-(2,6-dioxopiperidin-3-yl)-1-oxoisoindolin-5-yl)methyl)piperazin-1-yl)phenyl)-1-oxoisoindolin-2-yl)-2-(5-fluoro-2-hydroxyphenyl)-N-(thiazol-2-yl)acetamide]","IC50 for inhibiting the proliferation of tumor cells, H1975",NCI-H1975; 96 h,A+
"COc1cc(N2CCC(N(C)Cc3ccc4c(c3)CN(C3CCC(=O)NC3=O)C4=O)CC2)c(C)cc1Nc1ncc(Br)c(Nc2ccc3nccnc3c2P(C)(C)=O)n1 (stereo not drawn) [GT-03924, 3-(5-(((1-(4-((5-bromo-4-((5-(dimethylphosphoryl)quinoxalin-6-yl)amino)pyrimidin-2-yl)amino)-5-methoxy-2-methylphenyl)piperidin-4-yl)(methyl)amino)methyl)-1-oxoisoindolin-2-yl)piperidine-2,6-dione]","IC50 for inhibiting the proliferation of tumor cells, CAL-62",CAL-62,A+
same,"IC50 for inhibiting the proliferation of tumor cells, H1975",NCI-H1975; 96 h,A+
"CN(c1nccnc1CNc1nc(Nc2ccc(N3CCC(N4CCN(Cc5ccc6c(c5)CN(C5CCC(=O)NC5=O)C6=O)CC4)CC3)cc2)ncc1C(F)(F)F)S(C)(=O)=O (stereo not drawn) [GT-03706, N-(3-(((2-((4-(4-(4-((2-(2,6-dioxopiperidin-3-yl)-1-oxoisoindolin-5-yl)methyl)piperazin-1-yl)piperidin-1-yl)phenyl)amino)-5-(trifluoromethyl)pyrimidin-4-yl)amino)methyl)pyrazin-2-yl)-N-methylmethanesulfonamide]",IC50,"PC-9; Table 18, FAK inhibitor based",1000 to 5000 nM
same,IC50,"MDA-MB-231; Table 18, FAK inhibitor based",< 50 nM
same,IC50,SW620,500 to 1000 nM
same,IC50,Vcap,100 to 500 nM
same,IC50,CCRF-CEM,100 to 500 nM
same,IC50,Mino,100 to 500 nM
"C[C@@H](Oc1cc(-c2cnn(C3CCN(Cc4ccc5c(c4)CN(C4CCC(=O)NC4=O)C5=O)CC3)c2)cnc1N)c1c(Cl)ccc(F)c1Cl (stereo partly drawn) [GT-02974, 3-(5-((4-(4-(6-amino-5-((R)-1-(2,6-dichloro-3-fluorophenyl)ethoxy)pyridin-3-yl)-1H-pyrazol-1-yl)piperidin-1-yl)methyl)-1-oxoisoindolin-2-yl)piperidine-2,6-dione]",IC50,"PC-9; Table 15, ALK inhibitor based",1000 to 5000 nM
same,IC50,"MDA-MB-231; Table 15, ALK inhibitor based",1000 to 5000 nM
same,IC50,SR,50 to 100 nM
same,IC50,NCI-H1975,1000 to 5000 nM
